Data from ChEMBL document CHEMBL1201862, “PubChem BioAssay data set” (2004).
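Briefly, cells in 96-well plates were exposed to five compound concentrations for 48 h, and endpoints were estimated by linear interpolation. GI50 is the concentration that inhibits growth by half.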 Calls of active or inactive are those of the source. Cut-off read from the data, not from the text of the source: active = GI50 up to about 1.1 µM and inactive = higher.

Tests used:
Assay in all cases: growth of human tumour cells (NCI), 48 h
[1] = test system: HCT-116
[2] = test system: COLO 205
[3] = test system: 786-0
[4] = test system: MCF7
[5] = test system: HOP-62
[6] = test system: OVCAR-5
[7] = test system: T47D
[8] = test system: SF-539
[9] = test system: SW-620
[10] = test system: MOLT-4
[11] = test system: SNB-19
[12] = test system: RPMI-8226
[13] = test system: DU-145
[14] = test system: DMS-273
[15] = test system: OVCAR-4
[16] = test system: NCI-H522
[17] = test system: PC-3
[18] = test system: Malme-3M
[19] = test system: MDA-N
[20] = test system: NCI/ADR-RES
[21] = test system: IGROV-1
[22] = test system: OVCAR-3
[23] = test system: UACC-257
[24] = test system: HOP-18
[25] = test system: SF-268
[26] = test system: HL-60
[27] = test system: NCI-H460
[28] = test system: NCI-H23
[29] = test system: UACC-62
[30] = test system: RXF 631
[31] = test system: TK-10
[32] = test system: Hs-578T
[33] = test system: K562
[34] = test system: DLD-1
[35] = test system: DMS-114
[36] = test system: M14
[37] = test system: CAKI-1
[38] = test system: LXFL 529
[39] = test system: HT-29
[40] = test system: LOX IMVI
[41] = test system: SR
[42] = test system: BT-549
[43] = test system: M19-MEL
[44] = test system: KM12
[45] = test system: SF-295
[46] = test system: A498
[47] = test system: SK-MEL-28
[48] = test system: U-251
[49] = test system: ACHN
[50] = test system: SNB-75
[51] = test system: SK-OV-3
[52] = test system: HOP-92
[53] = test system: SK-MEL-2
[54] = test system: OVCAR-8
[55] = test system: RXF 393
[56] = test system: A549
[57] = test system: MDA-MB-231
[58] = test system: CCRF-CEM
[59] = test system: EKVX
[60] = test system: KM-20L2
[61] = test system: NCI-H226
[62] = test system: SK-MEL-5
[63] = test system: SN12C
[64] = test system: MDA-MB-435
[65] = test system: HCC 2998
[66] = test system: UO-31
[67] = test system: SNB-78
[68] = test system: XF498

Measured: GI50

C[C@H]1CCC2C(OC(=O)[C@@H]2CN(C)C)[C@]2(C)C(=O)C=CC12O (stereo partly specified)
inactive: [1] 2860 nM | [2] 4740 nM | [3] 5260 nM | [4] 7500 nM | [5] 23900 nM | [6] 14100 nM | [7] 3200 nM | [8] 3640 nM | [9] 3240 nM | [10] 2820 nM | [11] 22900 nM | [12] 2670 nM | [13] 10800 nM | [14] 3120 nM | [15] 5620 nM | [16] 1320 nM | [17] 14200 nM | [18] 3700 nM | [19] 3480 nM | [20] 2000 nM | [21] 15800 nM | [22] 3760 nM | [23] 4860 nM | [24] 24200 nM | [25] 6790 nM | [26] 1650 nM | [27] 12500 nM | [28] 3260 nM | [29] 2550 nM | [30] 1310 nM | [31] 6680 nM | [32] 4270 nM | [33] 3230 nM | [34] 2990 nM | [35] 2930 nM | [36] 4060 nM | [37] 7060 nM | [38] 3010 nM | [39] 4090 nM | [40] 4590 nM | [41] 2470 nM | [42] 5370 nM | [43] 4260 nM | [44] 4690 nM | [45] 13200 nM | [46] 14200 nM | [47] 2430 nM | [48] 17500 nM | [49] 2170 nM | [50] 4600 nM | [51] 16900 nM | [52] 2790 nM | [53] 9440 nM | [54] 1570 nM | [55] 1650 nM | [56] 24800 nM | [57] 9550 nM | [58] 1870 nM | [59] 4020 nM | [60] 2170 nM | [61] 7010 nM | [62] 7160 nM | [63] 4090 nM | [64] 4470 nM | [65] 5200 nM | [66] 10900 nM

C[C@@H]1CC2(N=CCS2)[C@]2(O)O[C@@H]3C[C@@]4(C)[C@H](C[C@H]3O[C@@H]2O1)C[C@H]1O[C@]12[C@@H]4[C@H](O)C(=O)[C@]1(C)C(C3=CC(=O)OC3)CC[C@]21O (stereo partly specified)
active: [1] < 10 nM | [2] 30.4 nM | [3] < 10 nM | [5] < 10 nM | [8] < 10 nM | [10] < 10 nM | [12] 22 nM | [67] 13.2 nM | [14] < 10 nM | [15] < 10 nM | [16] < 10 nM | [18] 12.9 nM | [68] 18.7 nM | [21] 25.4 nM | [25] < 10 nM | [26] 12.3 nM | [28] < 10 nM | [29] 22.9 nM | [30] 25.1 nM | [33] 19.4 nM | [34] < 10 nM | [35] < 10 nM | [36] 22.7 nM | [37] 11 nM | [38] < 10 nM | [40] 11.4 nM | [41] < 10 nM | [43] 28.2 nM | [46] 13.8 nM | [47] 25.5 nM | [49] < 10 nM | [50] 28.9 nM | [51] 31.4 nM | [52] 30.6 nM | [53] 26.4 nM | [58] < 10 nM | [61] 29.2 nM | [63] < 10 nM | [65] 28.1 nM | [66] 28.4 nM
